The results in this text go back to patent US20130172320A1, “PYRIDO [4,3-B] INDOLE AND PYRIDO [3,4-B] INDOLE DERIVATIVES AND METHODS OF USE” (priority 2010, published 2013).

Assay [1] deals with T1, rat adrenergic α1B receptor (Rattus norvegicus, UniProt P15823).
T1 construct: rat adrenergic α1B receptor obtained from Wistar Rat liver; from tissue; host or cells: Wistar Rat liver
T1 sequence (P15823 1-515): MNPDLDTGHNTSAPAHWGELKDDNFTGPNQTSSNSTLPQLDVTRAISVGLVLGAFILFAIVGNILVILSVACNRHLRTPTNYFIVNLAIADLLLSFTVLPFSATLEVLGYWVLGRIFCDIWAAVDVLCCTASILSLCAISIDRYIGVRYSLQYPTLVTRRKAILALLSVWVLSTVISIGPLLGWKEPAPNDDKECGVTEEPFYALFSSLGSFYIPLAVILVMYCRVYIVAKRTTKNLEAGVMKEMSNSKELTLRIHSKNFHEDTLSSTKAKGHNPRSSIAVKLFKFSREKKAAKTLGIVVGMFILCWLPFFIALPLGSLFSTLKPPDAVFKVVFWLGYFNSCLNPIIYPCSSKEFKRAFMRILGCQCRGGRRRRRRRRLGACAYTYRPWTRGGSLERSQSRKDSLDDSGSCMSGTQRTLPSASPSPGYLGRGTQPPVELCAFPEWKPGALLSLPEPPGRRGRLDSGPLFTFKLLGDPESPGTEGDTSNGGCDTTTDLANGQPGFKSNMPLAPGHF
Briefly: Adrenergic α1B radioligand binding ([3H]Prazosin). The settings on record: compound at 0.1 μM; read-out: Percentage inhibition of ligand binding, Adrenergic (0.1 μM) a1B. Set-up: species or system Wistar Rat. As for the experimental part: To evaluate in radioligand binding assays the activity of compounds of the invention, rat adrenergic α1B receptor obtained from Wistar Rat liver (Garcia-S'ainz, J. et al, Biochem. Biophys. Res. Commun. 186:760, 1992; Michel, A. et al, Br. J. Pharmacol. 98:883, 1989) in a modified Tris-HCl buffer (50 mM Tris-HCl buffer, pH 7.4, 0.5 mM EDTA) was used. Compounds of the invention were incubated with 0.25 nM [^3H]Prazosin for 60 min at 25° C. Non-specific binding was estimated in the presence of 10 μM phentolamine. Receptor proteins were filtered and washed, the filters were then counted to determine [^3H]Prazosin specifically bound. Compounds were screened at 1 μM or lower, using 1% DMSO as vehicle. Biochemical assay results are presented as the percent inhibition of specific binding in Table 3.

The target of assay [2] is T2, human recombinant adrenergic α2B receptor (Homo sapiens, UniProt P18089).
T2 construct: expressed in transfected cells; host or cells: Chinese hamster ovary (CHO) K1 cells
T2 sequence (P18089 1-450): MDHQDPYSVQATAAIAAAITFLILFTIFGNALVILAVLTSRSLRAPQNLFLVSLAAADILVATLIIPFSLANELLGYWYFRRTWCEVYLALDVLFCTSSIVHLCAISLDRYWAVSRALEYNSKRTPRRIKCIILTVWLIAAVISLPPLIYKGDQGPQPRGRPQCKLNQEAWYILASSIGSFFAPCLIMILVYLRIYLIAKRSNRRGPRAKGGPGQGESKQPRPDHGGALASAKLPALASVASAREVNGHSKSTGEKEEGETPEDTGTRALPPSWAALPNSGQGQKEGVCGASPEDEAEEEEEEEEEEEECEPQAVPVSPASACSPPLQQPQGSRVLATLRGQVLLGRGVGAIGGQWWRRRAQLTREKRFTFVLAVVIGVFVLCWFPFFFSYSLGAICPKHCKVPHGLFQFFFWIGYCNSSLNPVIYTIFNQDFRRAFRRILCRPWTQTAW
Briefly: Adrenergic α2B radioligand binding ([3H]Rauwolscine). The settings on record: compound at 0.1 μM; read-out: Percentage inhibition of ligand binding, Adrenergic (0.1 μM) a2B. As to the method: To evaluate in radioligand binding assays the activity of compounds of the invention, human recombinant adrenergic α2B receptor expressed in Chinese hamster ovary (CHO) K1 cells (Uhlen, S. et al, Eur. J. Pharmacol. 343(1):93, 1998) in a modified Tris-HCl buffer (50 mM Tris-HCl, pH 7.4, 12.5 mM MgCl2, 1 mM EDTA, 0.2% BSA) was used. Compounds of the invention were incubated with 2.5 nM [^3H]Rauwolscine for 60 min at 25° C. Non-specific binding was estimated in the presence of 10 μM Prozosin. Receptor proteins were filtered and washed, the filters were then counted to determine [^3H]Rauwolscine specifically bound. Compounds were screened at 1 μM or lower, using 1% DMSO as vehicle. Biochemical assay results are presented as the percent inhibition of specific binding in Table 3.

Assay [3] deals with T3, human recombinant serotonin (5-Hydroxytryptamine) 5-HT5A receptor (Homo sapiens, UniProt P47898).
T3 construct: expressed in transfected cells; host or cells: Chinese hamster ovary (CHO) K1 cells
T3 sequence (P47898 whole entry): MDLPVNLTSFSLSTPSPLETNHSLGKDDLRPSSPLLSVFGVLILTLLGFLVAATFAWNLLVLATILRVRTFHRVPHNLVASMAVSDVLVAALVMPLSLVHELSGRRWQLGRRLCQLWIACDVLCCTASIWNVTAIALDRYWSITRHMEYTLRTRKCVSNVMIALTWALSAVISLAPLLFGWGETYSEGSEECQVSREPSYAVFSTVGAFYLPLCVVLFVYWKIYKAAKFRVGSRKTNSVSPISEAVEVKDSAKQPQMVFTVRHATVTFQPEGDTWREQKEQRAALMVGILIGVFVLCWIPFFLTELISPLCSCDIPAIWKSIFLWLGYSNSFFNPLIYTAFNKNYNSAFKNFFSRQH
The experiment in a line: Serotonin 5-HT5A radioligand binding ([3H]LSD). The settings on record: compound at 0.1 μM; read-out: Percentage inhibition of ligand binding, Serotonin (0.1 μM) 5-HT5A. As to the method:
To evaluate in radioligand binding assays the activity of compounds of the invention, human recombinant serotonin (5-Hydroxytryptamine) 5-HT5A receptor expressed in Chinese hamster ovary (CHO) K1 cells (Rees, S. et al, FEBS Lett. 355:242, 1994) in a modified Tris-HCl buffer (50 mM Tris-HCl, pH 7.4, 10 mM MgCl2, 0.5 mM EDTA) was used. Compounds of the invention were incubated with 1.7 nM [^3H]Lysergic acid diethylamide (LSD) for 60 min at 37° C. Non-specific binding was estimated in the presence of 100 μM Serotonin (5-HT). Receptor proteins were filtered and washed, the filters were counted to determine [^3H]LSD specifically bound. Compounds were screened at 1 μM or lower, using 1% DMSO as vehicle. Biochemical assay results are presented as the percent inhibition of specific binding in Table 4.

Assay [4] deals with human recombinant serotonin (5-Hydroxytryptamine) 5-HT7 receptor (Homo sapiens, UniProt P34969). Briefly: Serotonin 5-HT7 radioligand binding ([3H]LSD). The note with it: compound at 0.1 μM; read-out: Percentage inhibition of ligand binding, Serotonin (0.1 μM) 5-HT7. As to the method: To evaluate in radioligand binding assays the activity of compounds of the invention, human recombinant serotonin (5-Hydroxytryptamine) 5-HT7 receptor expressed in Chinese hamster ovary (CHO) cells (Roth, B. et al, J. Pharmacol. Exp. Ther. 268:1403, 1994; Shen, Y. et al, J. Biol. Chem. 268:18200, 1993) in a modified Tris-HCl buffer (50 mM Tris-HCl, pH 7.4, 10 mM MgCl2, 0.5 mM EDTA) was used. Compounds of invention were incubated with 5.5 nM [^3H] Lysergic acid diethylamide (LSD) for 2 h at 25° C. Non-specific binding was estimated in the presence of 10 μM Serotonin (5-HT). Receptor proteins were filtered and washed, the filters were then counted to determine [^3H]LSD specifically bound. Compounds were screened at 1 μM or lower, using 1% DMSO as vehicle. Biochemical assay results are presented as the percent inhibition of specific binding in Table 4.
human recombinant serotonin (5-Hydroxytryptamine) 5-HT7 receptor, sequence (P34969 whole entry): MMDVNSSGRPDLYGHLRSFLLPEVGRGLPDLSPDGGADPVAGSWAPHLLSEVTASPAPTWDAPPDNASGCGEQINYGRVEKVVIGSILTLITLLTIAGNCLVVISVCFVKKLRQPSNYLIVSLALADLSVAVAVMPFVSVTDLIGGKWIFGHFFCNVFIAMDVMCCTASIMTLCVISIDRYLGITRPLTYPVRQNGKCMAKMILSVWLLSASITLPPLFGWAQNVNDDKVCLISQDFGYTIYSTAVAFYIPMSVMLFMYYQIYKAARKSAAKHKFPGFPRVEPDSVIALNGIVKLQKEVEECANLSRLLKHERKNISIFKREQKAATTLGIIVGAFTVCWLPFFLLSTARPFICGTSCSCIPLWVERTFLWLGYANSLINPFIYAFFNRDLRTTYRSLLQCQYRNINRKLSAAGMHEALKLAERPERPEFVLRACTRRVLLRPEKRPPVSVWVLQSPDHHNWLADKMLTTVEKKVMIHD

Turning to `C#CCC1(C)CN(C)Cc2c1n(C)c1ccc(C)cc21` (centres unmarked) [Compound 47, 2,4,5,8-tetramethyl-4-(prop-2-ynyl)-2,3,4,5-tetrahydro-1H-pyrido[4,3-b]indole], the inhibition at 0.1 µM worked out at 34% in assay [1], 32% in assay [2], 34% in assay [3] and 13% in assay [4].

On to `Cc1ccc2c(c1)c1c(n2C)C(C)(CCc2nc(-c3ccccc3)cs2)CN(C)C1` (centres unmarked) [Compound 48], for which the inhibition at 0.1 µM in assay [1] was 20%; in assay [2] it was -12%; in assay [3], -3%; in assay [4], 17%.

By inhibition is commonly meant the change of the read-out against control, counted positive when it falls.
